Reference: patent publication US9084828B2, “Oligomer-protein tyrosine kinase inhibitor conjugates” (Nektar Therapeutics, priority 2009, dated 2015)

Tests used:
Format in all cases: biochemical
[1] = target: T1, PKD2 (Homo sapiens, UniProt Q9BZL6); assay: Activity against various protein tyrosine kinases: PKD2
T1 sequence (Q9BZL6 1-878): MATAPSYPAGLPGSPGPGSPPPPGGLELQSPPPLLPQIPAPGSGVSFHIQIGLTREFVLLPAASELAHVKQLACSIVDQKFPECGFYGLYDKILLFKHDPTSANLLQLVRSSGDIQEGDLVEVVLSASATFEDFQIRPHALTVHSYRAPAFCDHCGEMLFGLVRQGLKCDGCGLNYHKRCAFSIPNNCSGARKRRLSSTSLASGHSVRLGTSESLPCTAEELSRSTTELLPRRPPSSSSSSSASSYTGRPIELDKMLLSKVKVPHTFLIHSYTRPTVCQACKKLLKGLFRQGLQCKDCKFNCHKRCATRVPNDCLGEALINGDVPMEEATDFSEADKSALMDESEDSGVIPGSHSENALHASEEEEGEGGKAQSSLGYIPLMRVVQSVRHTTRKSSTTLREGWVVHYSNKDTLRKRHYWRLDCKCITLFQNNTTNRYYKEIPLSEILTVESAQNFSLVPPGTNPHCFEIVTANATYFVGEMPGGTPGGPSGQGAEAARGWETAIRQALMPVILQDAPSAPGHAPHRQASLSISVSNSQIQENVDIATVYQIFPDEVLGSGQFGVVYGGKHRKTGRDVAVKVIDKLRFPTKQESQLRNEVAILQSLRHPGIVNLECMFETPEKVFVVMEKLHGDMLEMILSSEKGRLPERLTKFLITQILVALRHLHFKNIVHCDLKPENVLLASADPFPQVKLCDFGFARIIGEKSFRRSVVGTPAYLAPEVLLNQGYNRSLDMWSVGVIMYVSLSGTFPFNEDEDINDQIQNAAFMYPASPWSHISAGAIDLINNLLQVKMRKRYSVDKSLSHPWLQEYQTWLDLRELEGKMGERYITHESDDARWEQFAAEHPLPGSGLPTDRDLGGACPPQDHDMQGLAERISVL

[2] = target: CaMKII (gamma) (Homo sapiens, UniProt Q13555); assay: Activity against various protein tyrosine kinases: CaMKII (gamma)
[3] = target: SRC (Homo sapiens, UniProt P12931); assay: Activity against various protein tyrosine kinases: SRC
Sequence of SRC (P12931 whole entry, species assumed): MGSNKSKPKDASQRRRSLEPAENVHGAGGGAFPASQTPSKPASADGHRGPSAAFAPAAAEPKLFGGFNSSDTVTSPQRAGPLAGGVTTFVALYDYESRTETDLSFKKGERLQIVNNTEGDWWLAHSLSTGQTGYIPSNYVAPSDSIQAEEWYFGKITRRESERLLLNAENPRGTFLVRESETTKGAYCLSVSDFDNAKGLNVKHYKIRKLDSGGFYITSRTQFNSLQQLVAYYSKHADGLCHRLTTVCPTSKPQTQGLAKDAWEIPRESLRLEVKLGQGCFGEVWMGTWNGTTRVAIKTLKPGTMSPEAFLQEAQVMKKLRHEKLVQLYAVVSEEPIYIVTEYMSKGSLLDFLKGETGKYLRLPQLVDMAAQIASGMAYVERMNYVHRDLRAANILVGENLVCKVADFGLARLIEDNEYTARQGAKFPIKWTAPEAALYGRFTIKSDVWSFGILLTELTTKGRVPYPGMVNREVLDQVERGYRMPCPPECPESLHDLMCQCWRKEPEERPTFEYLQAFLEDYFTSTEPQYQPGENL

[4] = target: T2, PKCz (Homo sapiens, UniProt Q05513); assay: Activity against various protein tyrosine kinases: PKCz
T2 sequence (Q05513 1-592): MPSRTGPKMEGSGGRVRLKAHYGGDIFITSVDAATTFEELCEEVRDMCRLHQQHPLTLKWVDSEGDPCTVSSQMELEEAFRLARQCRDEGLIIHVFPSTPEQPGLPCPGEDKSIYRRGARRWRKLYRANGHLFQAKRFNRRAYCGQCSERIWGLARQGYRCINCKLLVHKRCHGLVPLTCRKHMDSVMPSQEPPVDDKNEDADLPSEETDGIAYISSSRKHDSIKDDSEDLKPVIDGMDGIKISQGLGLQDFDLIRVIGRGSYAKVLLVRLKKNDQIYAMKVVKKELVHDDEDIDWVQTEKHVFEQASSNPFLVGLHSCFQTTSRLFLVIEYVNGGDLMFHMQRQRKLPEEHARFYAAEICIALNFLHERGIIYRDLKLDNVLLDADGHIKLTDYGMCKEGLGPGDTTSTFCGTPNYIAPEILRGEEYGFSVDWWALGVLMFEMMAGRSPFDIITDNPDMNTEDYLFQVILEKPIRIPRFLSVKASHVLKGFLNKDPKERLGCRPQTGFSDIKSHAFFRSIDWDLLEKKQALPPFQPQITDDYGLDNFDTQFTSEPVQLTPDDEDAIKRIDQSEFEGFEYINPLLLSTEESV

[5] = target: T3, PRAK (Homo sapiens, UniProt Q8IW41); assay: Activity against various protein tyrosine kinases: PRAK
T3 sequence (Q8IW41 1-473): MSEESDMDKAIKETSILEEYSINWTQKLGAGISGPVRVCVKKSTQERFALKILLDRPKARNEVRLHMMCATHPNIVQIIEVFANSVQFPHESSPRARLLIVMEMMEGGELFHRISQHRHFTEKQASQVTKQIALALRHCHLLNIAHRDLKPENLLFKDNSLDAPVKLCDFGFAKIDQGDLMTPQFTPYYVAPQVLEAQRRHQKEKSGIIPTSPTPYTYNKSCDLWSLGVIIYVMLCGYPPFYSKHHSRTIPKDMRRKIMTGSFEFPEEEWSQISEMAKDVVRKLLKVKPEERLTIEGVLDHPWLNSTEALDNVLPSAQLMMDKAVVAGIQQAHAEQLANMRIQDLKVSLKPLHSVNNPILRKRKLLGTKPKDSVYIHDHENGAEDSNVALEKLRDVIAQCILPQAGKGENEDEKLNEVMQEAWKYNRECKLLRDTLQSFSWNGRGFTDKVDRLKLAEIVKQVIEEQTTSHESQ

[6] = target: AurB (Homo sapiens, UniProt Q96GD4); assay: Activity against various protein tyrosine kinases: AurB
Sequence of AurB (Q96GD4 whole entry): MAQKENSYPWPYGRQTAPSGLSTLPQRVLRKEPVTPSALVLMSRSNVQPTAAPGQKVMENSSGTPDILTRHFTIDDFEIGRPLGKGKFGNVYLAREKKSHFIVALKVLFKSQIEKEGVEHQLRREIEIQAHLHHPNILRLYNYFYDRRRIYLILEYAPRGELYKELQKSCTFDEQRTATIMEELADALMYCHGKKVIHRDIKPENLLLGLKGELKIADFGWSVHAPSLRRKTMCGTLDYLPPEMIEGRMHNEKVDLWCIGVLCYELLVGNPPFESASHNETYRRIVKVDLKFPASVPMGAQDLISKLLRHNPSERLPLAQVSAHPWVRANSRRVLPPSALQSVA

[7] = target: FGFR1 (Homo sapiens, UniProt P11362); assay: Activity against various protein tyrosine kinases: FGFR1
Sequence of FGFR1 (P11362 22-822, species assumed): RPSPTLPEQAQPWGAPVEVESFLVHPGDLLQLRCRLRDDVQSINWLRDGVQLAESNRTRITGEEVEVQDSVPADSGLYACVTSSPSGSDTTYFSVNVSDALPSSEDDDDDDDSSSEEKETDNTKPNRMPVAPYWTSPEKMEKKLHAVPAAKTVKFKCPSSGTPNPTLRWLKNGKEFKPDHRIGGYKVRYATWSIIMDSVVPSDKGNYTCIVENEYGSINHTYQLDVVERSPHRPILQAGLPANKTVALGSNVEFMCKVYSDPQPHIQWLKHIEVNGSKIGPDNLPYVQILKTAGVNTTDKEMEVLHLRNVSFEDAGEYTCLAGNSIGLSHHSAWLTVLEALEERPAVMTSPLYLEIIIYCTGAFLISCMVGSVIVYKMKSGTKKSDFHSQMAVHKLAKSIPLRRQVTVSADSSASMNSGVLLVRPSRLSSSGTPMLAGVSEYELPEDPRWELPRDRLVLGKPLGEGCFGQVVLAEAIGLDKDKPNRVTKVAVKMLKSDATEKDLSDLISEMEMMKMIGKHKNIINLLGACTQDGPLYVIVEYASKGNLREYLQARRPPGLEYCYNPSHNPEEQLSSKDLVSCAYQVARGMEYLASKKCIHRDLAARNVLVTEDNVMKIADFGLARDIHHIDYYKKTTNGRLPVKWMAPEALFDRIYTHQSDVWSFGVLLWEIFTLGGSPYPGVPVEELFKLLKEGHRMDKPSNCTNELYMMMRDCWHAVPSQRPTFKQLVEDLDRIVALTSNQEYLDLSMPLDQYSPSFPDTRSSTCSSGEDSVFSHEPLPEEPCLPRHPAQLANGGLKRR
Description: (§1) Using techniques know those of ordinary skill in the art, compounds were tested for activity against various protein tyrosine kinases.

[8] = target: p38a (Homo sapiens, UniProt Q16539); assay: Activity against various protein tyrosine kinases: p38a
Sequence of p38a (Q16539 whole entry): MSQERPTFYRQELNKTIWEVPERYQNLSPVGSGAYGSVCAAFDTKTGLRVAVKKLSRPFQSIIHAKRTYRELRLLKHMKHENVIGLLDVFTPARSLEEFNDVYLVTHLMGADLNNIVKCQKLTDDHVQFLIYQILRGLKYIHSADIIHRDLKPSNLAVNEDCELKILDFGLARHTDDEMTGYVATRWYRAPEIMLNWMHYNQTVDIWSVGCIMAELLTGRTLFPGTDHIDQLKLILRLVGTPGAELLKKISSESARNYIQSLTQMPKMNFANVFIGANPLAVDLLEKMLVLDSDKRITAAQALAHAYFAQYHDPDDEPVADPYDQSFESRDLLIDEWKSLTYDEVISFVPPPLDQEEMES

[9] = target: PDGFR_alpha (Homo sapiens, UniProt P16234); assay: Activity against various protein tyrosine kinases: PDGFR_alpha
Sequence of PDGFR_alpha (P16234 24-1089, species assumed): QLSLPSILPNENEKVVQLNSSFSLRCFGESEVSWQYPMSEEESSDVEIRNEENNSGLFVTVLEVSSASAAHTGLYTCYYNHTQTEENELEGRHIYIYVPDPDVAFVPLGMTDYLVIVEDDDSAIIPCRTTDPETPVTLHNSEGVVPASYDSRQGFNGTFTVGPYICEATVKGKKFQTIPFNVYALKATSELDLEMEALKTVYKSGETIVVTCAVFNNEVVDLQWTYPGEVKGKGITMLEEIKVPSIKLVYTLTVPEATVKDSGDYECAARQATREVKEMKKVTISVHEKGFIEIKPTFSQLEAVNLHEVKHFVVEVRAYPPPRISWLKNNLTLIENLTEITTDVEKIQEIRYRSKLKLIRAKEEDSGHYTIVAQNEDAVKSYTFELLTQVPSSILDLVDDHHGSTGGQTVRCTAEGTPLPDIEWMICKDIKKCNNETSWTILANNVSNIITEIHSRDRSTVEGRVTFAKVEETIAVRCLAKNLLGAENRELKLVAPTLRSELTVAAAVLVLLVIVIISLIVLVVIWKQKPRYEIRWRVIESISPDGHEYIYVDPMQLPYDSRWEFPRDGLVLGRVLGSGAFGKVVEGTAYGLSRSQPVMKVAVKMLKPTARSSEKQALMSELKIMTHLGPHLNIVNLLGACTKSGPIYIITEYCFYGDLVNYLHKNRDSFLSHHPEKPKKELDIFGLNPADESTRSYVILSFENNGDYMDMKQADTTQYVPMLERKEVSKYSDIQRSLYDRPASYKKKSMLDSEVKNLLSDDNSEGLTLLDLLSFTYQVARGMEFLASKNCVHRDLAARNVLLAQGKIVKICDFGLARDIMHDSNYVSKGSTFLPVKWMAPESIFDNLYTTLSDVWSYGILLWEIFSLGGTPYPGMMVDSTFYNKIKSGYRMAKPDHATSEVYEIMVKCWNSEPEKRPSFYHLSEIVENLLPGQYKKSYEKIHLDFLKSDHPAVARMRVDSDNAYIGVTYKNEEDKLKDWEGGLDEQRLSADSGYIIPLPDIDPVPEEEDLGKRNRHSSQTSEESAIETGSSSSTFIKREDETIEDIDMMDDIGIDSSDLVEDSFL

[10] = target: CK1d (Homo sapiens, UniProt P48730); assay: Activity against various protein tyrosine kinases: CK1d
Sequence of CK1d (P48730 whole entry): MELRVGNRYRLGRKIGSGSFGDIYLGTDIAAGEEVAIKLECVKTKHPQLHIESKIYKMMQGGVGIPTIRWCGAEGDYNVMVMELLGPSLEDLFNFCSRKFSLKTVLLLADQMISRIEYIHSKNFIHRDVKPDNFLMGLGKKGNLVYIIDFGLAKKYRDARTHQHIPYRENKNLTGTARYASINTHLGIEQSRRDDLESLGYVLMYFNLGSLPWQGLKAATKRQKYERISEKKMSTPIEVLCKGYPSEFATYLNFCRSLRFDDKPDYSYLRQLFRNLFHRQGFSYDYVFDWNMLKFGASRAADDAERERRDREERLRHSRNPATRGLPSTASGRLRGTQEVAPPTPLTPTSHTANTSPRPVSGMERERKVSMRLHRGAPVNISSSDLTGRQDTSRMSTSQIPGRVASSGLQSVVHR

[11] = target: ABL(Q252H) (Homo sapiens, UniProt P00519, Q252H); assay: Activity against various protein tyrosine kinases: ABL(Q252H)
Description: as §1

Compound	% Inhibition at 10 nM [1] [%]	% Inhibition at 1 μM [1] [%]	% Inhibition at 10 nM [2] [%]	% Inhibition at 1 μM [2] [%]	% Inhibition at 10 nM [3] [%]	% Inhibition at 1 μM [3] [%]	% Inhibition at 10 nM [4] [%]	% Inhibition at 1 μM [4] [%]	% Inhibition at 10 nM [5] [%]	% Inhibition at 1 μM [5] [%]	% Inhibition at 10 nM [6] [%]	% Inhibition at 1 μM [6] [%]	% Inhibition at 10 nM [7] [%]	% Inhibition at 1 μM [7] [%]	% Inhibition at 10 nM [8] [%]	% Inhibition at 1 μM [8] [%]	% Inhibition at 10 nM [9] [%]	% Inhibition at 1 μM [9] [%]	% Inhibition at 10 nM [10] [%]	% Inhibition at 1 μM [10] [%]	further results
COCCOCCOCCNC(=O)OCCN1CCN(c2cc(Nc3ncc(C(=O)Nc4c(C)cccc4Cl)s3)nc(C)n2)CC1 [mPEG3-NHCOO-Dasatinib]	12	−5	2	2	99	99	−12	−13	6	4	−1	4	11	−3	6	81	58	99	1	3	% Inhibition at 10 nM [11]: 98%; % Inhibition at 1 μM [11]: 99%
COCCOCCOCCOCCOCCOCCOCCNC(=O)OCCN1CCN(c2cc(Nc3ncc(C(=O)Nc4c(C)cccc4Cl)s3)nc(C)n2)CC1 [mPEG7-NHCOO-Dasatinib]	3	4	6	3	98	98	5	−9	8	0	0	4	2	3	5	74	46	98	0	9	% Inhibition at 10 nM [11]: 99%; % Inhibition at 1 μM [11]: 99%
